Assay results from ChEMBL document CHEMBL3102853, “Carbonic anhydrase inhibitors. Synthesis, and molecular structure of novel series N-substituted N'-(2-arylmethylthio-4-chloro-5-methylbenzenesulfonyl)guanidines and their inhibition of human cytosolic isozymes I and II and the transmembrane tumor-associated isozymes IX and XII” (Eur J Med Chem, 2014).
Calls of active or inactive are those of the source. No cut-off for these calls is given here.

Columns and labels:
Format in all cases: functional
[1] = tested on: OVCAR-8; assay: Cytotoxicity against human OVCAR8 cells
[2] = Cytotoxicity against human Hs 578T cells
[3] = tested on: K562; assay: Cytotoxicity against human K562 cells
[4] = tested on: MDA-MB-435; assay: Cytotoxicity against human MDA-MB-435 cells
[5] = tested on: RPMI-8226; assay: Cytotoxicity against human RPMI8226 cells at 10 uM; conditions: read-out: GI
[6] = tested on: SW-620; assay: Cytotoxicity against human SW620 cells at 10 uM; conditions: read-out: GI
[7] = tested on: T47D; assay: Cytotoxicity against human T47D cells
[8] = tested on: MDA-MB-468; assay: Cytotoxicity against human MDA-MB-468 cells
[9] = tested on: IGROV-1; assay: Cytotoxicity against human IGROV1 cells
[10] = Cytotoxicity against human OVCAR4 cells
[11] = tested on: BT-549; assay: Cytotoxicity against human BT549 cells
[12] = tested on: HL-60(TB); assay: Cytotoxicity against human HL-60(TB) cells at 10 uM; conditions: read-out: GI
[13] = tested on: KM12; assay: Cytotoxicity against human KM12 cells
[14] = tested on: SNB-75; assay: Cytotoxicity against human SNB75 cells
[15] = tested on: PC-3; assay: Cytotoxicity against human PC3 cells at 10 uM; conditions: read-out: GI
[16] = tested on: MDA-MB-468; assay: Cytotoxicity against human MDA-MB-468 cells at 10 uM; conditions: read-out: GI
[17] = tested on: HOP-92; assay: Cytotoxicity against human HOP92 cells
[18] = tested on: OVCAR-3; assay: Cytotoxicity against human OVCAR3 cells at 10 uM; conditions: read-out: GI
[19] = tested on: HOP-92; assay: Cytotoxicity against human HOP92 cells at 10 uM; conditions: read-out: GI
[20] = tested on: SNB-19; assay: Cytotoxicity against human SNB19 cells
[21] = tested on: SF-268; assay: Cytotoxicity against human SF268 cells
[22] = tested on: OVCAR-3; assay: Cytotoxicity against human OVCAR3 cells
[23] = tested on: MCF7; assay: Cytotoxicity against human MCF7 cells at 10 uM; conditions: read-out: GI
[24] = tested on: SF-539; assay: Cytotoxicity against human SF539 cells
[25] = tested on: CCRF-CEM; assay: Cytotoxicity against human CCRF-CEM cells
[26] = tested on: DU-145; assay: Cytotoxicity against human DU145 cells at 10 uM; conditions: read-out: GI
[27] = tested on: UACC-62; assay: Cytotoxicity against human UACC62 cells
[28] = tested on: NCI-H460; assay: Cytotoxicity against human NCI-H460 cells
[29] = Cytotoxicity against human UACC257 cells
[30] = tested on: MOLT-4; assay: Cytotoxicity against human MOLT4 cells
[31] = tested on: NCI-H460; assay: Cytotoxicity against human NCI-H460 cells at 10 uM; conditions: read-out: GI
[32] = tested on: NCI/ADR-RES; assay: Cytotoxicity against human NCI-ADR-RES cells at 10 uM
[33] = tested on: SF-268; assay: Cytotoxicity against human SF268 cells at 10 uM; conditions: read-out: GI
[34] = tested on: SK-MEL-2; assay: Cytotoxicity against human SK-MEL-2 cells
[35] = tested on: HL-60(TB); assay: Cytotoxicity against human HL-60(TB) cells
[36] = tested on: LOX IMVI; assay: Cytotoxicity against human LOXIMVI cells at 10 uM; conditions: read-out: GI
[37] = tested on: T47D; assay: Cytotoxicity against human T47D cells at 10 uM; conditions: read-out: GI
[38] = tested on: A549; assay: Cytotoxicity against human A549 cells at 10 uM; conditions: read-out: GI
[39] = tested on: MDA-MB-231; assay: Cytotoxicity against human MDA-MB-231 cells
[40] = tested on: HCC 2998; assay: Cytotoxicity against human HCC2998 cells
[41] = tested on: COLO 205; assay: Cytotoxicity against human COLO205 cells
[42] = tested on: SNB-75; assay: Cytotoxicity against human SNB75 cells at 10 uM; conditions: read-out: GI
[43] = tested on: A498; assay: Cytotoxicity against human A498 cells
[44] = tested on: MOLT-4; assay: Cytotoxicity against human MOLT4 cells at 10 uM; conditions: read-out: GI
[45] = tested on: SK-MEL-2; assay: Cytotoxicity against human SK-MEL-2 cells at 10 uM; conditions: read-out: GI
[46] = tested on: Malme-3M; assay: Cytotoxicity against human MALME-3M cells
[47] = tested on: SR; assay: Cytotoxicity against human SR cells
[48] = Cytotoxicity against human Hs 578T cells at 10 uM; conditions: read-out: GI
[49] = tested on: SK-MEL-28; assay: Cytotoxicity against human SK-MEL-28 cells
[50] = tested on: PC-3; assay: Cytotoxicity against human PC3 cells
[51] = tested on: UACC-62; assay: Cytotoxicity against human UACC62 cells at 10 uM; conditions: read-out: GI
[52] = tested on: HCT-116; assay: Cytotoxicity against human HCT116 cells
[53] = tested on: MCF7; assay: Cytotoxicity against human MCF7 cells
[54] = tested on: SR; assay: Cytotoxicity against human SR cells at 10 uM; conditions: read-out: GI
[55] = tested on: HT-29; assay: Cytotoxicity against human HT-29 cells at 10 uM; conditions: read-out: GI
[56] = tested on: RPMI-8226; assay: Cytotoxicity against human RPMI8226 cells
[57] = tested on: KM12; assay: Cytotoxicity against human KM12 cells at 10 uM; conditions: read-out: GI
[58] = tested on: K562; assay: Cytotoxicity against human K562 cells at 10 uM; conditions: read-out: GI
[59] = tested on: M14; assay: Cytotoxicity against human M14 cells
[60] = tested on: A498; assay: Cytotoxicity against human A498 cells at 10 uM; conditions: read-out: GI
[61] = tested on: NCI-H522; assay: Cytotoxicity against human NCI-H522 cells
[62] = tested on: LOX IMVI; assay: Cytotoxicity against human LOXIMVI cells
[63] = read-out: LC50 (the source's name)

With Cc1cc(S(=O)(=O)NC(=N)Nc2ccc(S(N)(=O)=O)cc2)c(SCc2ccc(C(F)(F)F)cc2)cc1Cl the GI50 [1] was 4.6 µM, the TGI [1] was 22.9 µM and the CC50 [1, 63] was 87.6 µM. It also gave a GI50 [2] of 3.7 µM, a TGI [2] of 24.6 µM and a CC50 [2, 63] of over 100 µM. It also gave a GI50 [3] of 3.6 µM, a TGI [3] of 21.1 µM and a CC50 [3, 63] of over 100 µM. It also gave a GI50 [4] of 3.8 µM, a TGI [4] of 14.8 µM and a CC50 [4, 63] of 46.1 µM. The inhibition of growth at 10 µM [5] was 57%, the inhibition of growth at 10 µM [6] was 12% and the GI50 [7] was 5.1 µM. The TGI [7] was 22.8 µM, the CC50 [7, 63] was 95.8 µM and the GI50 [8] was 2.7 µM. The TGI [8] was 15 µM, the CC50 [8, 63] was 81.6 µM and the GI50 [9] was 5.8 µM. The TGI [9] was 23.3 µM, the CC50 [9, 63] was 93 µM and the GI50 ([10]; OVCAR-4) was 3.9 µM. For the same compound, the TGI ([10]; OVCAR-4) was 25.1 µM, the CC50 ([10]; OVCAR-4, read-out: LC50 (the source's name)) was over 100 µM and the GI50 [11] was 4.6 µM. The TGI [11] was 18.5 µM, the CC50 [11, 63] was 58 µM and the inhibition of growth at 10 µM [12] was 66%. It also gave a GI50 [13] of 3.1 µM, a TGI [13] of 10.9 µM and a CC50 [13, 63] of 40.2 µM. The GI50 [14] was 2.7 µM, the TGI [14] was 17.4 µM and the CC50 [14, 63] was 66.1 µM. It also gave an inhibition of growth at 10 µM [15] of 74%, an inhibition of growth at 10 µM [16] of 63% and a GI50 [17] of 2.7 µM. For the same compound, the TGI [17] was 8.6 µM, the CC50 [17, 63] was 33.9 µM and the inhibition of growth at 10 µM [18] was 50%. For the same compound, the inhibition of growth at 10 µM [19] was 58%, the GI50 [20] was 5 µM and the TGI [20] was 21.5 µM. The CC50 [20, 63] was 61.1 µM, the GI50 [21] was 5.5 µM and the TGI [21] was 21.2 µM. The CC50 [21, 63] was 64.8 µM, the GI50 [22] was 3.9 µM and the TGI [22] was 14 µM. For the same compound, the CC50 [22, 63] was 39 µM, the inhibition of growth at 10 µM [23] was 69% and the GI50 [24] was 4.8 µM. The TGI [24] was 18.3 µM, the CC50 [24, 63] was 45.1 µM and the GI50 [25] was 3.8 µM. The TGI [25] was 15.2 µM, the CC50 [25, 63] was 86.2 µM and the inhibition of growth at 10 µM [26] was 9%. For the same compound, the GI50 [27] was 2.6 µM, the TGI [27] was 10.4 µM and the CC50 [27, 63] was 33 µM. It also gave a GI50 [28] of 4.2 µM, a TGI [28] of 18.5 µM and a CC50 [28, 63] of 90 µM. For the same compound, the GI50 ([29]; UACC-257) was 3.6 µM, the TGI ([29]; UACC-257) was 15.2 µM and the CC50 ([29]; UACC-257, read-out: LC50 (the source's name)) was 41.1 µM. The GI50 [30] was 2.8 µM, the TGI [30] was 11.2 µM and the CC50 [30, 63] was over 100 µM. The inhibition of growth at 10 µM [31] was 21%, the “growth inhibition (GI)” value [32] was “inactive” and the inhibition of growth at 10 µM [33] was 31%. It also gave a GI50 [34] of 2.4 µM, a TGI [34] of 6.3 µM and a CC50 [34, 63] of 25.3 µM. For the same compound, the GI50 [35] was 2.1 µM, the TGI [35] was 5.5 µM and the CC50 [35, 63] was 34.5 µM. The inhibition of growth at 10 µM [36] was 29%, the inhibition of growth at 10 µM [37] was 58% and the inhibition of growth at 10 µM [38] was 32%. The GI50 [39] was 2.5 µM, the TGI [39] was 11.1 µM and the CC50 [39, 63] was 37 µM. It also gave a GI50 [40] of 3.9 µM, a TGI [40] of 13.8 µM and a CC50 [40, 63] of 46.2 µM. It also gave a GI50 [41] of 4.4 µM, a TGI [41] of 17.7 µM and a CC50 [41, 63] of 80.6 µM. It also gave an inhibition of growth at 10 µM [42] of 71%, a GI50 [43] of 4.6 µM and a TGI [43] of 21.1 µM. For the same compound, the CC50 [43, 63] was 53.7 µM, the inhibition of growth at 10 µM [44] was 60% and the inhibition of growth at 10 µM [45] was 43%. For the same compound, the GI50 [46] was 6.7 µM, the TGI [46] was 21 µM and the CC50 [46, 63] was 52.5 µM. For the same compound, the GI50 [47] was 2.1 µM, the TGI [47] was 5.9 µM and the CC50 [47, 63] was over 100 µM. For the same compound, the inhibition of growth at 10 µM [48] was 20%, the GI50 [49] was 4.2 µM and the TGI [49] was 15.6 µM. It also gave a CC50 [49, 63] of 46.6 µM, a GI50 [50] of 3.7 µM and a TGI [50] of 13.7 µM. It also gave a CC50 [50, 63] of 40.9 µM, an inhibition of growth at 10 µM [51] of 49% and a GI50 [52] of 4 µM. The TGI [52] was 15.4 µM, the CC50 [52, 63] was 45.9 µM and the GI50 [53] was 2.9 µM. The TGI [53] was 14.1 µM, the CC50 [53, 63] was 69.7 µM and the inhibition of growth at 10 µM [54] was 72%. The inhibition of growth at 10 µM [55] was 22%, the GI50 [56] was 3.1 µM and the TGI [56] was 11 µM. It also gave a CC50 [56, 63] of over 100 µM, an inhibition of growth at 10 µM [57] of 50% and an inhibition of growth at 10 µM [58] of 64%. For the same compound, the GI50 [59] was 7.3 µM, the TGI [59] was 22 µM and the CC50 [59, 63] was 56.3 µM. The inhibition of growth at 10 µM [60] was 15%, the GI50 [61] was 3.9 µM and the TGI [61] was 16.3 µM. The CC50 [61, 63] was 48.5 µM, the GI50 [62] was 4.9 µM and the TGI [62] was 17.7 µM. The CC50 [62, 63] was 48.4 µM.
